Experiments:
Format in all cases: in vivo
Settings in all cases: 600 g copolymer where named, 300 l/ha, 21 days at 20° C.
[1] = system: Amaranthus retroflexus (AMARE); assay: Greenhouse herbicidal action of glyphosate test formulations
Procedure: (§1) Test formulations were prepared with in each case 200 g, 300 g and 500 g of glyphosate and in each case 600 g of the copolymers I to V in 300 l of water. The data by weight refer to 100% active ingredient and 100% adjuvant. An amount of the formulation corresponding to the ratio 300 l/ha was applied in a greenhouse to the plant species Abutilon theophrasti (ABUTH), Sesbania exaltata (SEBEX), Pharbitis purpurea (PHBPU), Galium aparine (GALAP), Amaranthus retroflexus (AMARE) and Echinochloa crus-galli (ECHCG), and, after 21 days at 20° C., the plant growth was assessed according to a % scale.
(§2) 0% means no effect and 100% means complete destruction of the types of plant.

[2] = system: Pharbitis purpurea (PHBPU); assay: as above
Procedure: as §1, §2

[3] = system: Galium aparine (GALAP); assay: as above
Procedure: as §1, §2

[4] = system: Echinochloa crus-galli (ECHCG); assay: as above
Procedure: as §1, §2

[5] = system: Sesbania exaltata (SEBEX); assay: as above
Procedure: as §1, §2

[6] = system: Abutilon theophrasti (ABUTH); assay: as above
Procedure: as §1, §2

[7] = system: SEBEX, AMARE, GALAP, ABUTH, ECHCG, PHBPU; assay: Greenhouse herbicidal action, total over the six plant species
Procedure: as §1, §2

O=C(O)CNCP(=O)(O)O [Glyphosate, N-phosphonomethylglycine]
herbicidal action AMARE (plant growth assessed on % scale) ([1]; glyphosate 200 g/ha): 20%
herbicidal action AMARE (plant growth assessed on % scale) ([1]; glyphosate 300 g/ha): 45%
herbicidal action AMARE (plant growth assessed on % scale) ([1]; glyphosate 500 g/ha): 65%
herbicidal action PHBPU (plant growth assessed on % scale) ([2]; glyphosate 200 g/ha): 10%
herbicidal action PHBPU (plant growth assessed on % scale) ([2]; glyphosate 300 g/ha): 20%
herbicidal action PHBPU (plant growth assessed on % scale) ([2]; glyphosate 500 g/ha): 40%
herbicidal action GALAP (plant growth assessed on % scale) ([3]; glyphosate 200 g/ha): 5%
herbicidal action GALAP (plant growth assessed on % scale) ([3]; glyphosate 300 g/ha): 20%
herbicidal action GALAP (plant growth assessed on % scale) ([3]; glyphosate 500 g/ha): 40%
herbicidal action ECHCG (plant growth assessed on % scale) ([4]; glyphosate 200 g/ha): 15%
herbicidal action ECHCG (plant growth assessed on % scale) ([4]; glyphosate 300 g/ha): 20%
herbicidal action ECHCG (plant growth assessed on % scale) ([4]; glyphosate 500 g/ha): 40%
herbicidal action SEBEX (plant growth assessed on % scale) ([5]; glyphosate 200 g/ha, 0% no effect, 100% complete destruction): 10%
herbicidal action SEBEX (plant growth assessed on % scale) ([5]; glyphosate 300 g/ha): 15%
herbicidal action SEBEX (plant growth assessed on % scale) ([5]; glyphosate 500 g/ha): 30%
herbicidal action ABUTH (plant growth assessed on % scale) ([6]; glyphosate 200 g/ha): 0%
herbicidal action ABUTH (plant growth assessed on % scale) ([6]; glyphosate 300 g/ha): 10%
herbicidal action ABUTH (plant growth assessed on % scale) ([6]; glyphosate 500 g/ha): 15%
herbicidal action Total ([7]; glyphosate 200 g/ha): 10%
herbicidal action Total ([7]; glyphosate 300 g/ha): 22%
herbicidal action Total ([7]; glyphosate 500 g/ha): 38%

From US20050037926A1, “Pesticide preparations containing copolymers” (priority 2001, published 2005)
